From the kinase profiling compilation of Christmann-Franck et al. (2016)

Key:
Test in all cases: KINOMEscan competition binding
Details in all cases: compound 10.0 µM
[1] = molecular target: TNK1 (human) (UniProt Q13470)
[2] = molecular target: MAP3K11 (human) (UniProt Q16584)
[3] = molecular target: KIT (human) (UniProt P10721)
[4] = molecular target: TESK1 (human) (UniProt Q15569)
[5] = molecular target: CDC42BPB (human) (UniProt Q9Y5S2)
[6] = molecular target: MST4 (human) (UniProt Q9P289)
[7] = molecular target: FGR (human) (UniProt P09769)
[8] = molecular target: CSNK1E (human) (UniProt P49674)
[9] = molecular target: CDK16 (human) (UniProt Q00536)
[10] = molecular target: BRSK2 (human) (UniProt Q8IWQ3)
[11] = molecular target: HIPK1 (human) (UniProt Q86Z02)
[12] = molecular target: MAP2K3 (human) (UniProt P46734)
[13] = molecular target: ACVR2A (human) (UniProt P27037)
[14] = system: FLT3 (human), P36888 [D835Y]
[15] = molecular target: CDKL3 (human) (UniProt Q8IVW4)
[16] = molecular target: MAPK11 (human) (UniProt Q15759)
[17] = molecular target: NEK6 (human) (UniProt Q9HC98)
[18] = molecular target: TXK (human) (UniProt P42681)
[19] = molecular target: GSK3A (human) (UniProt P49840)
[20] = molecular target: SRMS (human) (UniProt Q9H3Y6)
[21] = molecular target: EPHA3 (human) (UniProt P29320)
[22] = molecular target: RIOK1 (human) (UniProt Q9BRS2)
[23] = molecular target: PRKACA (human) (UniProt P17612)
[24] = molecular target: PRKCE (human) (UniProt Q02156)
[25] = molecular target: MARK2 (human) (UniProt Q7KZI7)
[26] = molecular target: NTRK1 (human) (UniProt P04629)
[27] = molecular target: STK10 (human) (UniProt O94804)
[28] = molecular target: YSK4 (human) (UniProt Q56UN5)
[29] = molecular target: GAK (human) (UniProt O14976)
[30] = molecular target: RIPK1 (human) (UniProt Q13546)
[31] = molecular target: IKBKE (human) (UniProt Q14164)
[32] = molecular target: EPHB1 (human) (UniProt P54762)
[33] = molecular target: RPS6KA2 KD2 (human) (UniProt Q15349)
[34] = molecular target: PLK1 (human) (UniProt P53350)
[35] = molecular target: TYK2 JH1 catalytic (human) (UniProt P29597)
[36] = molecular target: MAPK12 (human) (UniProt P53778)
[37] = molecular target: RAF1 (human) (UniProt P04049)
[38] = molecular target: PDGFRA (human) (UniProt P16234)
[39] = molecular target: NEK4 (human) (UniProt P51957)
[40] = molecular target: VRK2 (human) (UniProt Q86Y07)

TESK1 (human), sequence (Q15569 whole entry, looked up): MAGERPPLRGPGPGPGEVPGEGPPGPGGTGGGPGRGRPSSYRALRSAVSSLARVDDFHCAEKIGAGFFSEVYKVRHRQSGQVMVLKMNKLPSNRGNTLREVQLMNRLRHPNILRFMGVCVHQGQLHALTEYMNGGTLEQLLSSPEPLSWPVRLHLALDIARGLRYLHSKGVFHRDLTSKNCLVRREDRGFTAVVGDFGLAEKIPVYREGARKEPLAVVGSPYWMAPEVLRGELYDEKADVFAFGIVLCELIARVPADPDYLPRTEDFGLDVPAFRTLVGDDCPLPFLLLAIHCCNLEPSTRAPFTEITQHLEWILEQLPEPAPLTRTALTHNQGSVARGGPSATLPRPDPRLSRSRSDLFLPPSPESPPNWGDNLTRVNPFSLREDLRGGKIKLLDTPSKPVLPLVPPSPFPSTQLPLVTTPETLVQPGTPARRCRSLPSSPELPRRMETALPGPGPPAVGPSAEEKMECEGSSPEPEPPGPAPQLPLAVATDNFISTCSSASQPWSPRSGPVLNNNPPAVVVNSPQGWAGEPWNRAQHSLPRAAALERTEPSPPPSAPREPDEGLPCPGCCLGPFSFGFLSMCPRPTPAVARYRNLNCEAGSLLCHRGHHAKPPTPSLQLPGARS
RAF1 (human), sequence (P04049 whole entry, looked up): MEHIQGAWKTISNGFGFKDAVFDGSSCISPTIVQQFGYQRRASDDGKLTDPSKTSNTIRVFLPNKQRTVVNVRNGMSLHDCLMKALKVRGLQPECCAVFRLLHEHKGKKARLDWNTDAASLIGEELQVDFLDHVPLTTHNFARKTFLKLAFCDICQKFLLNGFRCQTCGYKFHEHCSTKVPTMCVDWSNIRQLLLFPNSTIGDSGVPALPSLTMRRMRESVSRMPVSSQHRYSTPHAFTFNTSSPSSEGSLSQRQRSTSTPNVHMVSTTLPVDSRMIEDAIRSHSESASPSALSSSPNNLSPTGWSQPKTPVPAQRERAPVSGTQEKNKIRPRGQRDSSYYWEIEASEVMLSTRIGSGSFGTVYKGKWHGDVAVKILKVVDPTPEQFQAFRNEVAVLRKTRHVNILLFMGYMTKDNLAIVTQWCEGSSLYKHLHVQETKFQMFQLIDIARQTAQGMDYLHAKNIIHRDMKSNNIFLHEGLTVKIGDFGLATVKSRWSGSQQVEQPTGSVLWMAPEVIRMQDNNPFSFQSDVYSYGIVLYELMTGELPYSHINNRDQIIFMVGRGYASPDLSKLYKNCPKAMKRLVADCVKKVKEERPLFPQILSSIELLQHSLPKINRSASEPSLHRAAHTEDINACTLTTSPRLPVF
CDC42BPB (human), sequence (Q9Y5S2 whole entry, looked up): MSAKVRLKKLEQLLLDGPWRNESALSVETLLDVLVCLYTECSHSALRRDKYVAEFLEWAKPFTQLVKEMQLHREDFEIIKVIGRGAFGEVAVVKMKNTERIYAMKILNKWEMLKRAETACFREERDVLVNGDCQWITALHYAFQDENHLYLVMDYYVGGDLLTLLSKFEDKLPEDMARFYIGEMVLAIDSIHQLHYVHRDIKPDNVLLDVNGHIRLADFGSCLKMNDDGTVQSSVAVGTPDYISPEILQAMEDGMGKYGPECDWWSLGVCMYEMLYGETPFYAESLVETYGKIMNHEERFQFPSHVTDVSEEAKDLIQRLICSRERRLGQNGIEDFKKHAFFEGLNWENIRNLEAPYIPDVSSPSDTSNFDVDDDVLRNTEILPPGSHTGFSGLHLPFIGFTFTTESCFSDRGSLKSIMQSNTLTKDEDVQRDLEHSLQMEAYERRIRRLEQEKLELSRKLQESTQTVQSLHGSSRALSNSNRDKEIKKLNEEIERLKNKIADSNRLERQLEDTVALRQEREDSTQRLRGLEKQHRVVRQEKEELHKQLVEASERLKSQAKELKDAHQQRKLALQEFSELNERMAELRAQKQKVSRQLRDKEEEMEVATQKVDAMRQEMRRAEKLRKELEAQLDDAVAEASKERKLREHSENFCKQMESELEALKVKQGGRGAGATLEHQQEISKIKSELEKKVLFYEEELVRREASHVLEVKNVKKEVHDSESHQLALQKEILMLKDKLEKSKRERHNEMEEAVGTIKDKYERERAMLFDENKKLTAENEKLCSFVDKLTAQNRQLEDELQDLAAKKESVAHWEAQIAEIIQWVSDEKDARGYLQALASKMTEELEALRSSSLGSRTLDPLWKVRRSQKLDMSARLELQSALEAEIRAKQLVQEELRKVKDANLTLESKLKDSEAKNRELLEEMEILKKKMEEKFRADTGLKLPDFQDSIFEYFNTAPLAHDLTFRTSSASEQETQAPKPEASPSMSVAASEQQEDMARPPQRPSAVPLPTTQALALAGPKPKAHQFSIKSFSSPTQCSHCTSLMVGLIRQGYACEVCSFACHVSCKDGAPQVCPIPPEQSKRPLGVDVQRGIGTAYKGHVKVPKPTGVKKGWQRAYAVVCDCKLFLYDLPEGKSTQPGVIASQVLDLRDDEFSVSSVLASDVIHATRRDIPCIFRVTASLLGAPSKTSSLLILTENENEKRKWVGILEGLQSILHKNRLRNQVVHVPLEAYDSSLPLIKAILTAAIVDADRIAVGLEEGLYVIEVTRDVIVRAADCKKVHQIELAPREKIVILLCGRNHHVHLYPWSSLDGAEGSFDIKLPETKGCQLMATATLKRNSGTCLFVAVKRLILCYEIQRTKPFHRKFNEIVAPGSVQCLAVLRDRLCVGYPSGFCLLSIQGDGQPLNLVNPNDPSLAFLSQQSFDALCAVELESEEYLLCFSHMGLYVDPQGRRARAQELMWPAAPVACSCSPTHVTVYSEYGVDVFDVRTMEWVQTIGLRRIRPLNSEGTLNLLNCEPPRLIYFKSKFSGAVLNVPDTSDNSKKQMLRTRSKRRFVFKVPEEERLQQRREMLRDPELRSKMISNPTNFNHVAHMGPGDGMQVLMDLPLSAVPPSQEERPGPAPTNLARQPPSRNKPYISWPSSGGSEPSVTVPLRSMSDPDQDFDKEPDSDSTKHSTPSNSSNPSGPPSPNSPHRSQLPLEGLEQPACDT
MAPK11 (human), sequence (Q15759 whole entry, looked up): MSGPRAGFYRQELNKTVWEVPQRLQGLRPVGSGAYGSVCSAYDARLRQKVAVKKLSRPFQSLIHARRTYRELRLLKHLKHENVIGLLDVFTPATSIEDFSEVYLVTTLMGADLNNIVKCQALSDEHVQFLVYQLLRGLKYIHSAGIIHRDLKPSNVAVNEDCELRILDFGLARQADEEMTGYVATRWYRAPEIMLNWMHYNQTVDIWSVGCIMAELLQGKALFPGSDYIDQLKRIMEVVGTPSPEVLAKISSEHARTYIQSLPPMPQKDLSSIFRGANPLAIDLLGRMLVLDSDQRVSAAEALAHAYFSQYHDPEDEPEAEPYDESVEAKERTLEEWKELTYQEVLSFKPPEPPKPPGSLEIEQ
HIPK1 (human), sequence (Q86Z02 whole entry, looked up): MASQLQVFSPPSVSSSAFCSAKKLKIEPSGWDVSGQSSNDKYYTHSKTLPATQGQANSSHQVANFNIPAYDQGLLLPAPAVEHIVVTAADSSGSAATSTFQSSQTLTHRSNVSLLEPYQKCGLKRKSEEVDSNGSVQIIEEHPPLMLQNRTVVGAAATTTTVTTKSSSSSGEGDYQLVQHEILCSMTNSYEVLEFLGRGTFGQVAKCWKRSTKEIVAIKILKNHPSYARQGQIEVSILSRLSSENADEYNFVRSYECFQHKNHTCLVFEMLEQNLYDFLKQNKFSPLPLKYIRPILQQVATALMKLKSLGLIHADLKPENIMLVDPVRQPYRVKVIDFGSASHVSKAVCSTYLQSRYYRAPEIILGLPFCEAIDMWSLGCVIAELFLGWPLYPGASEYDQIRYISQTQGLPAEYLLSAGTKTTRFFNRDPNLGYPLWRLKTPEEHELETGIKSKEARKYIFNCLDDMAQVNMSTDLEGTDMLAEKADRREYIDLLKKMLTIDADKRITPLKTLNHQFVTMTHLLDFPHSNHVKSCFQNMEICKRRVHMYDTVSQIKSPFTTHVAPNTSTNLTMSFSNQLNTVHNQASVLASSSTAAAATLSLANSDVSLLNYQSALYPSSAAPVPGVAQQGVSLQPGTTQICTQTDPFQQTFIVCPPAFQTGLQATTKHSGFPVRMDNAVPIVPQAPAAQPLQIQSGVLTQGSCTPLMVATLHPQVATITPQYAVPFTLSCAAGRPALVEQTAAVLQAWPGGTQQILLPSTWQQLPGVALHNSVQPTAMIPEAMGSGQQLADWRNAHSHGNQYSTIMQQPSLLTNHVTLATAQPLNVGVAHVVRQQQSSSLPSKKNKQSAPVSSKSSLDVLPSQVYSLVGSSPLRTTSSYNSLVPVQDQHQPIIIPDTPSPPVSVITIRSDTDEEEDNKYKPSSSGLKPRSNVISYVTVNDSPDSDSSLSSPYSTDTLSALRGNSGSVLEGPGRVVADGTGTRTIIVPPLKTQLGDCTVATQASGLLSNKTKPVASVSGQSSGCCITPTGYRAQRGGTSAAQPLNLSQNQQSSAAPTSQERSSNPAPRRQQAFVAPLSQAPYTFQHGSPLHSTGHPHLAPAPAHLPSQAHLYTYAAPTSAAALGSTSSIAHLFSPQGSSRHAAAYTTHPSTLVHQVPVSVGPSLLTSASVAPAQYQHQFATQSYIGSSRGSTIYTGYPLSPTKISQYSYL
SRMS (human), sequence (Q9H3Y6 whole entry, looked up): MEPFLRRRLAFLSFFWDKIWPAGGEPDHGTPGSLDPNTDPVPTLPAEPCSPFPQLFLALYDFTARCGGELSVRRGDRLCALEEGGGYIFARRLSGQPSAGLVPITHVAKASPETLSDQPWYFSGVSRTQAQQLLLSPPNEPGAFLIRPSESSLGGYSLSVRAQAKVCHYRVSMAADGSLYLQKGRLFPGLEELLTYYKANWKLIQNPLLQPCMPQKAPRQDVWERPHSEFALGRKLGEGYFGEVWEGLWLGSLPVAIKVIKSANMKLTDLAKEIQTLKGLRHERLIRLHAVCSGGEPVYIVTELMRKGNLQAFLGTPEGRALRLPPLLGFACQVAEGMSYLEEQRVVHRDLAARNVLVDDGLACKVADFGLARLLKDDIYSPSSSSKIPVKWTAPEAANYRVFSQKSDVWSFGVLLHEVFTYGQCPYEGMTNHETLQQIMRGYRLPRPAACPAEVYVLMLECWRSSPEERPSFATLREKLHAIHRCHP

Cc1cn(-c2cc(C(=O)Nc3ccc(C)c(NC(=O)c4ccno4)c3)cc(C(F)(F)F)c2)cn1
kinase still bound, per cent of control [1]: 100% | kinase still bound, per cent of control [2]: 100% | kinase still bound, per cent of control [3]: 0% | kinase still bound, per cent of control [4]: 100% | kinase still bound, per cent of control [5]: 100% | kinase still bound, per cent of control [6]: 100% | kinase still bound, per cent of control [7]: 23% | kinase still bound, per cent of control [8]: 100% | kinase still bound, per cent of control [9]: 100% | kinase still bound, per cent of control [10]: 100% | kinase still bound, per cent of control [11]: 100% | kinase still bound, per cent of control [12]: 100% | kinase still bound, per cent of control [13]: 100% | kinase still bound, per cent of control [14]: 100% | kinase still bound, per cent of control [15]: 100% | kinase still bound, per cent of control [16]: 0% | kinase still bound, per cent of control [17]: 100% | kinase still bound, per cent of control [18]: 12% | kinase still bound, per cent of control [19]: 100% | kinase still bound, per cent of control [20]: 26% | kinase still bound, per cent of control [21]: 9.5% | kinase still bound, per cent of control [22]: 100% | kinase still bound, per cent of control [23]: 100% | kinase still bound, per cent of control [24]: 100% | kinase still bound, per cent of control [25]: 100% | kinase still bound, per cent of control [26]: 100% | kinase still bound, per cent of control [27]: 100% | kinase still bound, per cent of control [28]: 100% | kinase still bound, per cent of control [29]: 100% | kinase still bound, per cent of control [30]: 100% | kinase still bound, per cent of control [31]: 100% | kinase still bound, per cent of control [32]: 21% | kinase still bound, per cent of control [33]: 100% | kinase still bound, per cent of control [34]: 100% | kinase still bound, per cent of control [35]: 100% | kinase still bound, per cent of control [36]: 100% | kinase still bound, per cent of control [37]: 6% | kinase still bound, per cent of control [38]: 1.2%

CCN(CCO)CCCOc1ccc2c(Nc3cc(CC(=O)Nc4cccc(F)c4)[nH]n3)ncnc2c1
kinase still bound, per cent of control [1]: 86% | kinase still bound, per cent of control [2]: 100% | kinase still bound, per cent of control [3]: 0% | kinase still bound, per cent of control [4]: 100% | kinase still bound, per cent of control [5]: 100% | kinase still bound, per cent of control [6]: 37% | kinase still bound, per cent of control [7]: 82% | kinase still bound, per cent of control [8]: 100% | kinase still bound, per cent of control [10]: 100% | kinase still bound, per cent of control [39]: 40% | kinase still bound, per cent of control [11]: 40% | kinase still bound, per cent of control [13]: 100% | kinase still bound, per cent of control [15]: 99% | kinase still bound, per cent of control [16]: 100% | kinase still bound, per cent of control [18]: 100% | kinase still bound, per cent of control [19]: 100% | kinase still bound, per cent of control [20]: 29% | kinase still bound, per cent of control [21]: 62% | kinase still bound, per cent of control [22]: 100% | kinase still bound, per cent of control [23]: 100% | kinase still bound, per cent of control [24]: 100% | kinase still bound, per cent of control [25]: 80% | kinase still bound, per cent of control [26]: 6.8% | kinase still bound, per cent of control [27]: 11% | kinase still bound, per cent of control [28]: 39% | kinase still bound, per cent of control [29]: 21% | kinase still bound, per cent of control [30]: 100% | kinase still bound, per cent of control [31]: 51% | kinase still bound, per cent of control [32]: 98% | kinase still bound, per cent of control [33]: 77% | kinase still bound, per cent of control [34]: 100% | kinase still bound, per cent of control [35]: 85% | kinase still bound, per cent of control [40]: 100% | kinase still bound, per cent of control [36]: 89% | kinase still bound, per cent of control [37]: 100% | kinase still bound, per cent of control [38]: 0%

CC1=C(C(=O)Nc2cc3cn[nH]c3cc2F)C(c2ccc(C(F)(F)F)cc2)CC(=O)N1 (stereo unspecified)
kinase still bound, per cent of control [1]: 33% | kinase still bound, per cent of control [2]: 100% | kinase still bound, per cent of control [3]: 90% | kinase still bound, per cent of control [4]: 92% | kinase still bound, per cent of control [5]: 22% | kinase still bound, per cent of control [6]: 24% | kinase still bound, per cent of control [7]: 78% | kinase still bound, per cent of control [8]: 79% | kinase still bound, per cent of control [9]: 100% | kinase still bound, per cent of control [10]: 90% | kinase still bound, per cent of control [39]: 85% | kinase still bound, per cent of control [11]: 75% | kinase still bound, per cent of control [12]: 67% | kinase still bound, per cent of control [13]: 88% | kinase still bound, per cent of control [14]: 74% | kinase still bound, per cent of control [15]: 78% | kinase still bound, per cent of control [16]: 92% | kinase still bound, per cent of control [17]: 70% | kinase still bound, per cent of control [18]: 83% | kinase still bound, per cent of control [19]: 100% | kinase still bound, per cent of control [20]: 58% | kinase still bound, per cent of control [21]: 88% | kinase still bound, per cent of control [22]: 100% | kinase still bound, per cent of control [24]: 100% | kinase still bound, per cent of control [25]: 99% | kinase still bound, per cent of control [26]: 91% | kinase still bound, per cent of control [27]: 100% | kinase still bound, per cent of control [28]: 50% | kinase still bound, per cent of control [29]: 100% | kinase still bound, per cent of control [30]: 84% | kinase still bound, per cent of control [31]: 77% | kinase still bound, per cent of control [32]: 91% | kinase still bound, per cent of control [33]: 94% | kinase still bound, per cent of control [34]: 96% | kinase still bound, per cent of control [35]: 20% | kinase still bound, per cent of control [40]: 87% | kinase still bound, per cent of control [36]: 79% | kinase still bound, per cent of control [37]: 100% | kinase still bound, per cent of control [38]: 84%

CC(=O)c1c(C)c2cnc(Nc3ccc(N4CCNCC4)cn3)nc2n(C2CCCC2)c1=O
kinase still bound, per cent of control [1]: 61% | kinase still bound, per cent of control [3]: 60% | kinase still bound, per cent of control [4]: 99% | kinase still bound, per cent of control [5]: 91% | kinase still bound, per cent of control [6]: 26% | kinase still bound, per cent of control [7]: 71% | kinase still bound, per cent of control [8]: 16% | kinase still bound, per cent of control [9]: 0.2% | kinase still bound, per cent of control [10]: 80% | kinase still bound, per cent of control [39]: 20% | kinase still bound, per cent of control [11]: 0.1% | kinase still bound, per cent of control [12]: 19% | kinase still bound, per cent of control [14]: 1.6% | kinase still bound, per cent of control [15]: 78% | kinase still bound, per cent of control [16]: 96% | kinase still bound, per cent of control [17]: 69% | kinase still bound, per cent of control [19]: 50% | kinase still bound, per cent of control [20]: 49% | kinase still bound, per cent of control [21]: 66% | kinase still bound, per cent of control [22]: 38% | kinase still bound, per cent of control [23]: 100% | kinase still bound, per cent of control [24]: 67% | kinase still bound, per cent of control [25]: 28% | kinase still bound, per cent of control [26]: 6.5% | kinase still bound, per cent of control [27]: 23% | kinase still bound, per cent of control [28]: 4.3% | kinase still bound, per cent of control [29]: 4.4% | kinase still bound, per cent of control [30]: 65% | kinase still bound, per cent of control [31]: 22% | kinase still bound, per cent of control [33]: 26% | kinase still bound, per cent of control [34]: 8.4% | kinase still bound, per cent of control [35]: 18% | kinase still bound, per cent of control [36]: 59%
